Test results from PMC9586895, “Esomeprazole and apixaban pharmacokinetic interactions in healthy rats” (Heliyon, 2022).
Where two headings read alike, the source gives them in different places.

Legend:
[1] = Pharmacokinetic study in Wistar rats, plasma levels by HPLC/MS, non-compartmental analysis; format: in vivo; conditions: for bioavailability: read-out: absolute bioavailability (F); for AUC(0-t): read-out: AUC0–24; for Cpmax: rat plasma
Method: The column is ACE C8 (50 ∗ 4.6) mm, particle size 5 μm (Supercell), and AP 13C as the internal standard. […] The chromatographic conditions of Ap and ESO analysis were as follows: The HPLC system: […] Detector: API 4000, Applied Biosystems, MDS SCIEX; computer system: […] Data Management Software: […] Column: ACE C8, (50 ∗ 4.6) mm, particle size 5 μm; Flow Rate: 650 μL/min; Injection Volume: 1 μL; […] Expected retention time: […] The ethical committee approved the study protocol of the High Research Council, Faculty of Pharmacy of the […] University, and the study was carried out in the animal house of the university. […] They were divided into five groups, each of 6 rats. Group 1 ([…].V sterile solution (5 mg/kg) in D.W containing 5% ethanol. Group 2 (G2) was given AP as sterile I.V solution (125 mcg/kg) in D.W containing 10% ethanol. […] All rats fasted overnight with access only to water. […] Blood samples were drawn into an EDTA tube and immediately centrifuged at 14,000 rpm for 7 min. Plasma was obtained and placed into a labeled Eppendorf tube and stored at […] until analysis. After constructing the Cp vs. t profile by plotting the average plasma concentration of each drug in ng/mL vs. time in hours, the pharmacokinetics was performed using Non-Compartmental Analysis (NCA) using WinNonlin® (Version 8.1).

[2] = system: plasma protein, mainly albumin; conditions: cited from earlier work
[3] = cited from earlier work
P-gp = system: P-gp; parameters: method as in PMID 11770010; conditions: cited from earlier work
[4] = IV (ESO 5 mg/kg; AP 125 mcg/kg)
[5] = Wistar, rat, plasma, iv, IV (ESO 5 mg/kg; AP 125 mcg/kg)
[6] = Wistar, rat, plasma, iv, IV (ESO 5 mg/kg; AP 125 mcg/kg), NCA, read-out: Kel (app) (converted)
[7] = Wistar, rat, plasma, iv, read-out: Vd
[8] = Wistar, rat, plasma, po, ESO 5 mg/kg + AP 250 mcg/kg in combination
[9] = Wistar, rat, plasma, po, ESO 5 mg/kg + AP 250 mcg/kg in combination, NCA, read-out: Kel (app) (converted)
[10] = Wistar, rat, plasma, po, given alone (ESO 5 mg/kg; AP 250 mcg/kg)
[11] = Wistar, rat, plasma, po, given alone (ESO 5 mg/kg; AP 250 mcg/kg), NCA, read-out: Kel (app) (converted)
[12] = oral, ESO 5 mg/kg + AP 250 mcg/kg in combination
[13] = oral, given alone (ESO 5 mg/kg; AP 250 mcg/kg)

Row | SMILES | AUMC0–24 [1, 4] [ng.h^2/mL] | AUMC0–∞ [1, 4] [ng.h^2/mL] | clearance ([1]; Wistar, rat, plasma, iv) [mL/min] | AUC(0-inf) [1, 5] [ng·h/mL] | MRT inf [1, 5] [h] | half-life [1, 5] [h] | k el [1, 6] [s⁻¹] | AUC(0-t) [1, 5] [ng·h/mL] | Vd [1, 7] [L] | AUC(0-inf) [1, 8] [ng·h/mL] | MRT inf [1, 8] [h] | Tmax [1, 8] [h] | half-life [1, 8] [h] | k el [1, 9] [s⁻¹] | AUC(0-t) [1, 8] [ng·h/mL] | AUC(0-inf) [1, 10] [ng·h/mL] | MRT inf [1, 10] [h] | Tmax [1, 10] [h] | k el [1, 11] [s⁻¹] | AUC(0-t) [1, 10] [ng·h/mL] | also measured
1 | COc1ccc(-n2nc(C(N)=O)c3c2C(=O)N(c2ccc(N4CCCCC4=O)cc2)CC3)cc1 [AP, 1-(4-methoxyphenyl)-7-oxo-6-[4-(2-oxopiperidin-1-yl)phenyl]-4,5-dihydropyrazolo [3,4-c]pyridine-3-carboxamide] | 8164.8 ± 78.3 | 28975.07 ± 2364 | 0.3 ± 0.08 | 1340 ± 120 | 21.5 ± 1.5 | 14.9 ± 1.8 | 1.29e-05 | 894 ± 80.6 | 0.4 ± 0.09 | 1560 ± 78 | 14 ± 0.21 | 1 ± 0.32 | 9.6 ± 0.144 | 1.99e-05 | 1270 ± 63.3 | 1540 ± 54 | 24 ± 0.24 | 6 ± 1.09 | 1.17e-05 | 959 ± 38.4 | bioavailability ([1]; Wistar, rat, plasma, 250 mcg/kg, oral vs IV, drug given alone, F=AUCoral/AUCiv∙Doseiv/Doseoral): 42 ± 1%; half-life [1, 10]: 16.6 ± 0.99 h; AUMC0–24 [1, 12]: 10320.5 ± 516 ng.h^2/mL; AUMC0–∞ [1, 12]: 21710.2 ± 215.1 ng.h^2/mL; Vd [1, 12]: 2.1 ± 0.015 L; Cpmax [1, 12]: 98.6 ± 12.6 ng/mL; AUMC0–24 [1, 13]: 9517 ± 475.8 ng.h^2/mL; AUMC0–∞ [1, 13]: 37101 ± 742.2 ng.h^2/mL; Cl [1, 13]: 0.54 ± 0.03 mL/min; Vd [1, 13]: 0.779 ± 0.032 L; Cpmax [1, 13]: 57.2 ± 5.3 ng/mL; bound to plasma protein ([2]; mainly albumin ref 14): 87–90%; excreted in the urine as unchanged drug [3]: 25%; excreted into the bile as unchanged drug [3]: 56%; share of total absorption in the distal part and the descending colon [3]: 55%; volume of distribution ([3]; mainly extracellular fluids ref 14): 21 L; bioavailability ([3]; no noticeable effect of food ref 12): around 50%
2 | COc1ccc2[nH]c([S+]([O-])Cc3ncc(C)c(OC)c3C)nc2c1 (stereo not shown) [ESO, 5-methoxy-2-{[(4-methoxy-3,5-dimethylpyridin-2-yl)methyl]sulfinyl}-1H-benzimidazole] | 35805 ± 826 | 40322.6 ± 1256 | 3.7 ± 0.7 | 5450 ± 118 | 7.4 ± 0.95 | 4.8 ± 0.8 | 3.94e-05 | 5120 ± 120 | 1.5 ± 0.15 | 3410 ± 45.9 | 8.6 ± 0.13 | 4 ± 0.55 | 5.9 ± 0.236 | 3.22e-05 | 3250 ± 160 | 4510 ± 226 | 6.4 ± 0.128 | 2 ± 0.156 | 4.08e-05 | 4380 ± 218 | half-life ([1]; Wistar, rat, in vivo, po): 4.7 ± 0.14 h; bioavailability ([1]; Wistar, rat, plasma, oral): 62 ± 1.5%; k el ([1]; Wistar, rat, plasma, po, 5 mg/kg, oral ESO 5 mg/kg alone, read-out: elimination rate constant calculated from late concentrations of the plasma level time profile (linear model) (converted)): 4.53e-05 s⁻¹; decrease of AUC when given with AP ([1]; oral ESO 5 mg/kg with AP 250 mcg/kg vs alone): 25%; extrapolated area to infinity as share of the total area ([1]; oral ESO alone): about 13%; extrapolated area to infinity as share of the total area ([1]; oral ESO in combination with AP): 20%; AUMC0–24 [1, 12]: 23544.9 ± 309 ng.h^2/mL; AUMC0–∞ [1, 12]: 29430.9 ± 1473 ng.h^2/mL; Cl [1, 12]: 4.8 ± 0.14 mL/min; Vd [1, 12]: 2.4 ± 0.09 L; Cpmax [1, 12]: 387.9 ± 23.5 ng/mL; AUMC0–24 [1, 13]: 24658.6 ± 206.5 ng.h^2/mL; AUMC0–∞ [1, 13]: 29094.1 ± 1454.7 ng.h^2/mL; Vd [1, 13]: 1.41 ± 0.07 L; Cpmax [1, 13]: 695.9 ± 25.8 ng/mL; plasma protein binding ([2]; mainly to albumin ref 6, 7): about 97%; volume of distribution ([3]; adults ref 6, 7): 16 to 18 L; bioavailability ([3]; after 20 or 40 mg delayed-release tablets ref 6, 7): about 90%; P-gp inhibitor strength (P-gp): moderate to potent P-gp inhibitor
